This passage reports IC50 results from publication PMC6272931, “Acacetin Protects Mice from Staphylococcus aureus Bloodstream Infection by Inhibiting the Activity of Sortase A” (Molecules, 2016).

For the experiment, the target named is T1, Sortase A (SrtA) (Staphylococcus aureus, UniProt Q2FV99).
T1 construct: SrtAΔN59
The experiment is described as follows: FRET peptide cleavage assay (Dabcyl-QALPETGEE-Edans) with purified SrtAΔN59, […] CaCl2 in the buffer. The format is biochemical.

T1 sequence (Q2FV99 60-206): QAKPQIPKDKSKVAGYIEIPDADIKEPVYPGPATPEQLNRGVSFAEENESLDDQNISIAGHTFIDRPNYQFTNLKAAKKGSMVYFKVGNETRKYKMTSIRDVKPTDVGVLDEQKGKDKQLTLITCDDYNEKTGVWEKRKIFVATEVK

A word on the IC50: it is the concentration needed to halve the response being measured. Higher therefore signals a need for much substance. The compound `COc1ccc(-c2cc(=O)c3c(O)cc(O)cc3o2)cc1` [acacetin, 5,7-dihydroxy-2-(4-methoxyphenyl)chromen-4-one] yielded an IC50 of 128 µM.
